Experimental data from PubChem BioAssay (NCI).
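Assay format: 96-well plates, 48-hour exposure. GI50 marks 50% less growth. Definition used: TGI = concentration required for complete inhibition of growth.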

What was measured:
Assay in all cases: NCI-60 cell line screen, 48 h
RXF 393 renal = tested on: RXF 393 renal
EKVX NSCLC = tested on: EKVX NSCLC
SF-295 CNS = tested on: SF-295 CNS
UACC-257 melanoma = tested on: UACC-257 melanoma
SN12C renal = tested on: SN12C renal
SNB-75 CNS = tested on: SNB-75 CNS
NCI-H226 lung = tested on: NCI-H226 lung
HL-60(TB) leukemia = tested on: HL-60(TB) leukemia
SR leukemia = tested on: SR leukemia
SK-OV-3 ovarian = tested on: SK-OV-3 ovarian

| Structure (SMILES) | GI50 (RXF 393 renal) [µM] | TGI (RXF 393 renal) [µM] | GI50 (EKVX NSCLC) [µM] | TGI (EKVX NSCLC) [µM] | GI50 (SF-295 CNS) [µM] | TGI (SF-295 CNS) [µM] | GI50 (UACC-257 melanoma) [µM] | TGI (UACC-257 melanoma) [µM] | GI50 (SN12C renal) [µM] | TGI (SN12C renal) [µM] | GI50 (SNB-75 CNS) [µM] | TGI (SNB-75 CNS) [µM] | GI50 (NCI-H226 lung) [µM] | TGI (NCI-H226 lung) [µM] | GI50 (HL-60(TB) leukemia) [µM] | TGI (HL-60(TB) leukemia) [µM] | GI50 (SR leukemia) [µM] | TGI (SR leukemia) [µM] | GI50 (SK-OV-3 ovarian) [µM] | TGI (SK-OV-3 ovarian) [µM] |
| --- | --- | --- | --- | --- | --- | --- | --- | --- | --- | --- | --- | --- | --- | --- | --- | --- | --- | --- | --- | --- |
| COc1ccc(-c2nc3sc(-c4ccc(Cl)cc4)cn3n2)cc1 | 6 | 39.7 | 4.82 | > 50 | 2.81 | 31.8 | > 50 | > 50 | 1.84 | > 50 | 1.61 | 6.85 | 11.1 | > 50 | > 50 | > 50 | 4.53 | 26.1 | 11.7 | > 50 |
| CC1CCP(=O)(c2ccccc2)c2ccccc21 (stereo not given) |  | > 100 |  | > 100 |  | > 100 |  | > 100 |  | 85.6 |  | > 100 |  | > 100 |  | 41.1 |  | 96.9 |  | > 100 |
| CCC(=O)O[C@H]1CC[C@H]2[C@@H]3CC[C@H]4CC(=O)[C@H](C)C[C@]4(C)[C@H]3CC[C@]12C | 30.5 | > 100 | 22.1 | > 100 | 20.9 | > 78 | 20.8 | 92.7 | > 85.2 | > 100 | > 100 | > 100 | > 96.2 | > 100 | 5.57 | 24.3 | 3.21 | 21.8 | > 81.7 | > 100 |
| O=C(Nc1ccc(F)cc1)c1ccc(NC2=C(Cl)C(=O)N(Cc3ccccc3)C2=O)cc1 | 12.2 | 32.2 | 27 | 87 | 4.27 | 16.6 | 19.8 | 56 | 4.12 | 16.4 | 15.9 | 37.4 | 13.5 | 33.3 | 2.31 | 7.35 | 0.848 | 2.54 | 24 | 68 |
| COc1ccc(-c2oc3c(OC)c(OC)c(OC)c(O)c3c(=O)c2OC)cc1OC |  | 87.4 |  | > 100 |  | > 76.5 |  | > 100 |  | > 100 |  | 13.2 |  | > 88.7 |  | 26.1 |  | 45.1 |  | 63.8 |
| CC(C)CNCC(O)COc1ccc(C(C)(C)c2ccc(OCC(O)CNCC(C)C)cc2)cc1 (stereo not given) | 1.66 | 3.67 | 3.78 | 17.8 | 2.36 | 6.68 | 1.73 | 3.26 | 4.82 | 18.3 | 4 | 18.2 | 8.27 | 26.2 | 1.86 | 3.76 | 2.02 | 4.39 | 4.09 | 15.3 |
| CCOC(=O)C1(Br)C(c2ccccc2)NC(=O)NC1(C)Br (stereo not given) |  | > 100 |  | > 100 |  | > 100 |  | > 100 |  | > 100 |  | > 100 |  | > 100 |  | 46.4 |  | > 100 |  | > 100 |
| CC1CC2CC(=O)CC3(C1)C2CCCN3CCCO (stereo not given) |  | > 100 |  | > 100 |  | > 100 |  | > 100 |  | > 100 |  | > 100 |  | > 100 |  | > 100 |  | > 100 |  | > 100 |
| COC[C@@H](N=CN1CCc2cc(OC)c(OC)cc2[C@@H]1C)C(C)(C)C |  | > 100 |  | > 100 |  | > 100 |  | > 100 |  | > 100 |  | > 100 |  | > 100 |  | > 100 |  | > 100 |  | > 100 |
| CCn1c(C(=O)N(C2CC2)C2CC2)cc2c3c(ncn3C)c(Nc3cc(C)n(C)n3)nc21 | 2.99 | 23.9 | > 100 | > 100 | > 100 | > 100 | > 100 | > 100 | 98.3 | > 100 | 1.26 | 32.5 | > 100 | > 100 | > 100 | > 100 | 16.8 | > 100 | > 100 | > 100 |
| Oc1ccc(C(c2ccc(O)cc2)c2ccc(Cl)cn2)cc1 | 0.0593 | 1.65 | 0.349 | 6.59 | 0.403 | 7.21 | 23.1 | > 100 | 0.0408 | 0.331 | 0.17 | 0.451 | 1.93 | > 45.8 | 3.56 | 22 | 29.5 | > 100 | 18.6 | > 100 |
| COc1ccc(C2SCC(=O)N2NC(=O)C(O)c2ccccc2)cc1OC (stereo not given) | > 100 | > 100 | > 100 | > 100 | > 100 | > 100 | > 100 | > 100 | > 100 | > 100 | > 100 | > 100 | > 100 | > 100 | > 100 | > 100 | 40.9 | > 100 | > 100 | > 100 |
| CCCCc1c2c(nc3c1CCc1cc4cc5c(nc4nc1-3)-c1nc3c(c(CCCC)c1CC5)CCCC3)CCCC2 |  | 71.4 |  | > 100 |  | > 100 |  | > 100 |  | > 100 |  | > 100 |  | 89.1 |  | > 100 |  | > 100 |  | > 100 |
| O=C1c2ccc([N+](=O)[O-])cc2-c2c1c1ccccc1c(=O)n2CCCNCCCNCCCn1c2c(c3ccc([N+](=O)[O-])cc3c1=O)C(=O)c1ccccc1-2 | 5.51 | 41 | 8.76 | 32.1 | 2.23 | 20.7 | 18 | 59.6 | 0.355 | 2.91 | 0.427 | 5.54 | 1.57 | 8.53 | 2.09 | 7.48 | 0.0306 | 2.83 | 4.79 | 19.2 |
| CC(C)C1(O)C(c2ccccc2)=C(c2ccccc2)C(c2ccccc2)=C1c1ccccc1 |  | 13.3 |  | 47 |  | 30.2 |  | 26.2 |  | 41.6 |  | 58.5 |  | 31.6 |  | 7.07 |  | 36 |  | > 100 |
| COc1ccccc1N=C(N)N/N=C/c1c[nH]c2ccccc12 |  | 27.3 |  | 23.2 |  | 21.3 |  | 11.7 |  | 22.7 |  | 25.4 |  | 28.5 |  | 33.3 |  | 26.9 |  | 31.7 |
| CCOC(=O)C1=C(C(=O)c2ccc(C)cc2)C(c2cccc([N+](=O)[O-])c2)C(C(=O)c2ccc(C)cc2)=C(C(=O)OCC)N1 |  | 68.6 |  | 47.1 |  | 32.1 |  | 41.4 |  | 32.4 |  | > 100 |  | 35.2 |  | 96.7 |  | 35.3 |  | 27.9 |
| CC(C)=CCC/C(C)=C/CC/C(C)=C/Cc1c(O)c2ccccc2oc1=O |  | > 100 |  | > 100 |  | > 100 |  | > 100 |  | > 100 |  | > 100 |  | > 100 |  | > 100 |  | > 100 |  | > 100 |
| CN1CCN(c2ccc(NC(=O)c3nc4ccc5[nH]ncc5c4c4c3CCCC4)cc2C(F)(F)F)CC1 | 0.798 | 1.55 | 1.44 | 8.62 | 1.39 | 4.16 | 0.902 | 1.88 | 0.895 | 1.65 | 5.5 | 12.1 | 4.36 | 17.7 | 0.969 | 2.1 | 0.9 | 2.81 | 1.48 | 5.25 |
| COc1ccc(Nc2ncc(Br)c(NCCCNC(=O)C3CCC3)n2)cc1 | 2.3 | 8.56 | 20.5 | 83.9 | 11 | 89.4 | 68.9 | > 100 | 5.45 | 62.7 | 2.98 | 12.1 | 4.8 | 37.7 | 5.59 | 45.8 | 4.34 | 40.1 | 14.1 | 36.6 |
| Cc1ccc(/C(=N\N=C(N)N)c2ccccc2)cc1 | 0.296 | 2.9 | 0.998 | 26 | 0.306 | 3.15 | 11.7 | 28.2 | 0.587 | 13.4 | 0.288 | 4.94 | 0.726 | 10.1 | 0.318 | > 36.2 | 1.83 | 24.8 | 0.42 | 10.4 |
| C=C1SC(=Nc2c(C)cc(C)cc2C)N(C(=O)c2sc3ccccc3c2Cl)C12CCCCC2 | > 100 | > 100 | 38.6 | > 100 | 42.3 | > 100 | > 100 | > 100 | > 100 | > 100 | > 100 | > 100 | > 100 | > 100 | 16.5 | > 100 | 13 | > 100 | > 100 | > 100 |
| C[C@H](NC(=O)[C@@H]1CSSC[C@@H](NC(=O)c2nc3ccccc3cc2O)C(=O)NCC(=O)N1C)c1ccccc1 | 1.31 | 3.06 | 3.48 | 11.8 | 7.44 | 16.3 | 7.63 | 24.6 | 5.62 | 14.1 | 7.62 | 43.1 | 8.87 | 17.4 | 1.2 | 4.78 | 0.17 | 0.877 | 5.59 | 21.2 |
